One block for each molecule: values may come before it.
Legend:
farnesyltransferase = farnesyltransferase (Homo sapiens, UniProt P49356); conditions: Hardcastle et al, Tetrahedron Letters 2001, 42(7), 1363-1365; cited from earlier work
[1] = test system: splenic lymphocytes from C57BL/6 mice stimulated with splenic lymphocytes from CBA mice; experiment: Test 4 - Immunosuppression model: murine mixed lymphocyte reaction; assay type: cell-based
Experimental: Test 4—Immunosupression Model: Murine Mixed Lymphocyte Reaction
Method: Immunosuppression was assessed by testing the effects of the compounds on the proliferation of splenic lymphocytes from C57BL/6 mice strain stimulated with splenic lymphocytes from CBA mice strain. Splenic lymphocyte populations were isolated from two mouse strains: CBA (acting as stimulating cells) and C57BL/6 (acting as proliferating cells). Homogenized mouse spleen was filtered and subsequently centrifuged at 250×g for 5 minutes at 4° C. The pellets were resuspended in culture medium (RPMI 1640 supplemented with 5% fetal calf serum and 2% antibiotics) and after repeating this process twice they were adjusted to a final density of 5×10^6 cells/mL. The isolated lymphocytes from CBA strain were treated with mitomycin C to block their proliferation.
In a 96-well plate, solutions of the test compounds or culture medium alone (for the control) were distributed. Next, 5×10^5 C57BL/6 cells and 2.5×10^5 CBA cells were added and incubated for 48 h (37° C., 5% CO2). After this preincubation 1 μCi of [^3H]-thymidine and 0.2 mM unlabeled thymidine were added to each well and the mixture was incubated 24 h. […]
Lymphocyte proliferation was measured as [^3H]-thymidine incorporation into the DNA of responding cells (C57BL/6) using a liquid scintillation counter (LS series, Beckman).

[2] = test system: human peripheral blood mononuclear cells (PBMC); experiment: Cell viability in human non-proliferating cells (PBMC); assay type: cell-based; conditions: concentrations up to 500 μM, 72 h of incubation
[3] = test system: hamster lung fibroblast cell line (V79 cells); experiment: Test 5 - Induction of apoptosis in tumor cells (active caspase-3, flow cytometry); assay type: cell-based
Experimental: Test 5: Induction of Apoptosis in Tumor Cells
Method: The ability of the compounds of the invention to induce apoptosis was determined in a hamster lung fibroblast cell line (V79 cells). To determine the induction of apoptosis a commercially available kit was used (CaspaTag™ Caspase-3 (DEVD) Activity Kit, Intergen); this kit detects the presence in the cells of the active form of the enzyme caspase-3, which is an apoptosis marker. V79 cells were incubated for 72 h in culture medium (DMEM supplemented with 2 mM Glutamine and 10% fetal calf serum) in the presence of test compound (30 and 100 μM; solution in phosphate-buffered saline) or vehicle. Next, cells were washed with phosphate-buffered saline, treated with Trypsin-EDTA solution until the cell layer was dispersed and were resuspended in fresh growth medium at a concentration of 10^6 cells/mL. A 300 μL aliquote of each of the samples was transferred to a tube and was incubated with the irreversible, carboxyfluorescein-labeled peptidic caspase-3 inhibitor FAM-DEVD-FMK for 1 hour at 37° C. in 5% CO2 and protecting the tubes from light following the kit's instructions. […] The inhibitor in excess was washed and the cells were then analyzed by flow cytometry at 488 nm.

Male Swiss mice = experiment: Test 1 - Oxazolone-induced delayed hypersensitivity in mice (ear edema); assay type: in vivo; conditions: topical on right ear, solution in acetone; FIG. 1
Experimental: Test 1—Oxazolone-induced Delayed Hipersensitivity in Mice
Method: Male Swiss mice (25-30 g body weight) were sensitized by the application of a 2% solution of oxazolone (Sigma) in acetone (50 μL) into the shaved abdomen. Seven days later, 25 μL of a 1.5% solution of oxazolone was applied on both surfaces of the right ear of the animals. The left ear served as control and was only treated with the vehicle (acetone). 20 μL of the test compound (dissolved in acetone) or vehicle alone (control) was applied on both sides of the right ear, 24 h before challenge and 1 and 5 h after challenge. To evaluate the edema, mice were killed (by CO2 inhalation) and an 8 mm disc was excised from the right and left ears. The edema was measured by the difference in weight between the two ears and inhibition was expressed as percentage in relation to the control group.

[4] = test system: human umbilical vein endothelial cells (HUVEC); experiment: Cell viability in human non-proliferating cells (HUVEC); assay type: cell-based; conditions: concentrations up to 500 μM, 72 h of incubation
Male Lewis rats = experiment: Test 3 - Inhibition of adjuvant-induced arthritis in the rat; assay type: in vivo; conditions: 10 mg/kg/day p.o. for 28 days
Experimental: Test 3—Inhibition of Adjuvant-induced Arthritis in the Rat
Method: Male Lewis rats with body weight between 140 and 170 g and 7 week-old were used. Before the start of the study animals were acclimated for a period of at least 5 days. Animals were fasted for 18 hours before the study, with water ad libitum. Throughout the study, animals were allowed free access to drinking water, except during observation periods.
Groups of five animals were randomized (Sham, Control and Test compound). The duration of the study was 28 days. Arthritis was induced on day 1 of the study by a single subplantar injection of 0.1 mL of an emulsion prepared with 10 mg Mycobacterium butyricum and 10 mL Freund's incomplete adjuvant (Difco) to the right hindpaw of the animals from the Control (C) and Test compound (T) groups. Sham animals (S) received 0.1 mL Freund's incomplete adjuvant. Test compound was administered daily from day 1 of the study until day 28 at a dose of 10 mg/kg p.o. as a suspension in 1% Tween 80® while the Control group only received the vehicle. On day 28 of the development of arthritis, the volume of the left paw (secondary edema) was determined using a UGO BASILE 7150 plethysmometer. The inhibition of the increase in volume was calculated as follows: % Inh.=100−((T−S)/(C−S))*100 Where: T=Test compound group; C=Control group; and S=Sham group

[5] = test system: immune-deficient BNX mice transplanted with human psoriatic skin; experiment: Test 2 - Psoriasis model in immune-deficient BNX mice transplanted with human psoriatic skin; assay type: in vivo; conditions: topical ointment at the concentration of 0.1%; p<0.01
Text: Test 2—Psoriasis Model in Immune-deficient BNX Mice Transplanted with Human Psoriatic Skin
Method: The goal of this study is to assess the effect of the test compounds on the development of a psoriatic lesion, induced by super-antigen-activated human peripheral blood T-cells, in non-lesional skin from a psoriasis patient transplanted onto immune-deficient BNX mice. Mice (male/female, circa 20 g, 5 mice per group) were transplanted with non-lesional skin biopsies from psoriasis patients. Peripheral blood mononuclear cells from the same patients were isolated and stored in freezer until further use. Transplants were allowed to “lake” for 4 weeks. After this period, transplants were treated topically with test compound or control (vehicle) preparations for 1 week. Then, peripheral blood mononuclear cells from psoriatic patients, previously activated in vitro for 2 days with super-antigen, were injected into the transplants intra-dermally. Transplants were treated with test compound or control preparations for two additional weeks. Transplants were then harvested and epidermal thickness was measured by using computer-aided morphometric analysis.

farnesyltransferase, sequence (P49356 whole entry): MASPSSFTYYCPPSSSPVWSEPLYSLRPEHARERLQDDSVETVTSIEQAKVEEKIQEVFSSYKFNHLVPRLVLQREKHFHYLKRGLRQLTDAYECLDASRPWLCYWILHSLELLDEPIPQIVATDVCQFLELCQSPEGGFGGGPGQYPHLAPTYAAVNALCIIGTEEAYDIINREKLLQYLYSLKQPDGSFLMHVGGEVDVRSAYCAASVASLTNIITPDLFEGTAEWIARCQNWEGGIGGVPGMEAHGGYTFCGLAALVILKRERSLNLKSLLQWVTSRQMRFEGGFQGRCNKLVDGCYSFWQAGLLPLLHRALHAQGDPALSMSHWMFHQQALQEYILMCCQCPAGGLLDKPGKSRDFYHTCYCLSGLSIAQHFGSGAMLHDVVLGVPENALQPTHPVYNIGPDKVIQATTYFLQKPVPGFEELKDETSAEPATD

- melting point: 64 °C
SMILES: COC(=O)c1ccc(OCCF)cc1O [Example 4, Methyl 2-hydroxy-4-(2-fluoroethoxy)benzoate]

SMILES: O=C(O)c1c(O)c(F)c(OCCCF)c(F)c1F [2,3,5-trifluoro-4-(3-fluoropropoxy)-6-hydroxybenzoic acid]
- farnesyltransferase inhibition (farnesyltransferase): inactive

SMILES: O=C(O)c1ccc(OCC(F)(F)C(F)(F)F)cc1O [Example 6, 2-Hydroxy-4-(2,2,3,3,3-pentafluoropropoxy)benzoic acid]
- inhibition of mice splenic lymphocyte proliferation ([3H]-thymidine incorporation) ([1]; 300 μM): completely inhibited
- inhibition at 100 µM ([1]; Mus musculus, Splenic lymphocyte, 100 μM, read-out: inhibition of the proliferation of mice splenic lymphocytes): 60%
- cell viability [2]: not to affect cell viability
- number of cells containing the active form of caspase-3 (apoptotic cells) ([3]; 30 and 100 μM, 72 h incubation, FIG. 2): concentration-dependent increase
- morphological observation of the cells (activation of apoptosis) ([3]; V79 cells): presence of cell membrane blebbing and the formation of apoptotic bodies
- inhibition of the edema (difference in weight between the two ears) (Male Swiss mice): concentration-dependent inhibition of the edema
- cell viability [4]: not to affect cell viability
- inhibition of the increase in volume of the left paw (secondary edema) (Male Lewis rats): significant inhibition
- inhibition of the increase of the epidermal thickness induced by intradermal injection of activated mononuclear cells [5]: significant inhibition
